Experiments:
VR1 [1] = target: T1, VR1 (Rattus norvegicus, UniProt O35433); experiment: Whole-cell patch clamp electrophysiology: inhibition of capsaicin induced current in DRG neurons; assay type: cell-based, rats; parameters: Dorsal root ganglion (DRG) neurons were recovered from either neonatal or adult rats; endogenous in cells; host or cells: primary rat dorsal root ganglion neurons
Description: Whole-cell patch clamp electrophysiology
Dorsal root ganglion (DRG) neurons were recovered from either neonatal or adult rats and plated onto poly-D-lysine coated glass coverslips. The plated neurons were transferred into a chamber to allow drug solutions to be added to the cells using a computer-controlled solenoid-valve based perfusion system. The cells were imaged using standard DIC optics. Cells were patched using finely-pulled glass electrodes. Voltage-clamp electrophysiology experiments were carried out using an Axon Instruments Multiclamp amplified controlled by pCLAMP8 software.
The cells were placed into a whole-cell voltage clamp and held at a voltage of –80mV while monitoring the membrane current in gap-free recording mode.
500nM capsaicin was added for 30 seconds as a control. Test compounds at various concentrations were added to the cells for 1 minute prior to a 30 second capsaicin application. Differences between control experiments and drug positive capsaicin experiments were used to determine the efficacy of each test compound. All compounds that inhibited capsaicin induced current greater than 50% were considered positives.

VR1 [2] = target: T1, VR1; experiment: Calcium imaging assay: inhibition of capsaicin induced calcium influx in DRG neurons (Fura2, microscope); assay type: cell-based; parameters: endogenous in cells; host or cells: DRG neurons; conditions: for inhibition of calcium ion influx induced by capsaicin stimulation: class symbols per legend
Summary of the method: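 Fura2-loaded rat DRG neurons imaged by microscope; test compound perfused 1 min, then capsaicin (250 nM) applied with compound for 20–60 s. Calcium influx followed as 340/380 nm fluorescence ratio; inhibition above 75% scored positive.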

T1 sequence (O35433 whole entry): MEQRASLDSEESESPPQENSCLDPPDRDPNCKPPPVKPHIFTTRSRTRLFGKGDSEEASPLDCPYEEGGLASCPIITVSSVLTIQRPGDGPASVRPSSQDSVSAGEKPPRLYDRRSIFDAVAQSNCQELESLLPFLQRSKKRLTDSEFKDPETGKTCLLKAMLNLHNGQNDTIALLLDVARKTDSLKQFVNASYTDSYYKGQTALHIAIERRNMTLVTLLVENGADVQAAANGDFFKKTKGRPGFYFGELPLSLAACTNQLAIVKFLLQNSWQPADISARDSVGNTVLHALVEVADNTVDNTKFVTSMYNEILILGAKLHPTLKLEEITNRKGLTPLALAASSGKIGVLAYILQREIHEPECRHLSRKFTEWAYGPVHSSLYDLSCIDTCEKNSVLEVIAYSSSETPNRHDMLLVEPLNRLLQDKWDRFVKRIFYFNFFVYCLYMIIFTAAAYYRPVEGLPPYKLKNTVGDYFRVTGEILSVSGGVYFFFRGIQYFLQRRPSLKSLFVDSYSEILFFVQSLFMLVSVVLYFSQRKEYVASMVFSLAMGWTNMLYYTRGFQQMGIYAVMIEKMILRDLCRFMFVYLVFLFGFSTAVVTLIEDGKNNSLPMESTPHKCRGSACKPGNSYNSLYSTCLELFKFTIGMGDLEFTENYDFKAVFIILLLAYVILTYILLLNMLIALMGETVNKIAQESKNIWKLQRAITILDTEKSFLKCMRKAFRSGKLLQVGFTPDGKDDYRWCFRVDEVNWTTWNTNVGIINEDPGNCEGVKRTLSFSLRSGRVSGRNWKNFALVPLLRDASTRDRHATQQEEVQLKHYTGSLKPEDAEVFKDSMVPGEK

SMILES	inhibition of calcium ion influx induced by capsaicin stimulation (VR1 [2])	also measured
COc1cc(NC(=O)c2ccc(/C=C/C(C)C)cc2)cc(C(F)(F)F)c1 [Compound 155]	–	inhibition at 0.1 µM (VR1 [1]; DRG neuron, concentration 100 nM, treatment time 20 seconds, 500nM capsaicin, held at -80mV, DRG neurons): 50%; calcium influx in neurons, capsaicin in presence of compound vs capsaicin alone (Figure 2) (VR1 [1]; same neurons, capsaicin alone as comparison): less calcium influx; inhibition at 0.3 µM (VR1 [2]; DRG neuron, concentration 300 nM, treatment time 20 sec, capsaicin 250 nM, DRG neurons): < 75%; fluorescence reflecting calcium ion influx when administered with capsaicin (Figure 1) (VR1 [2]; administered with capsaicin): reduced
CC(C)c1ccc(NC(=O)c2ccc(/C=C/C(F)(F)F)cc2)cc1 [Compound 394]	++ (compound exhibited 25-50% inhibition of calcium ion influx induced by capsaicin stimulation)	–
CCN(CC)c1ccc(NC(=O)c2ccc(C#CC(C)(C)C)cc2)cc1 [Compound 380]	++ (compound exhibited 25-50% inhibition of calcium ion influx induced by capsaicin stimulation)	–
C/C(=C\C(C)(C)C)c1ccc(C(=O)Nc2ncc(C(F)(F)F)cc2Cl)cc1 [Compound 345]	+ (compound exhibited 0-25% inhibition of calcium ion influx induced by capsaicin stimulation)	–
C/C(=C\C(C)(C)C)c1ccc(C(=O)NCCc2cnc[nH]2)cc1 [Compound 356]	+ (compound exhibited 0-25% inhibition of calcium ion influx induced by capsaicin stimulation)	–
Cc1ccc(NC(=O)c2ccc(C#CC(C)(C)C)nc2)nc1 [Compound 432]	+ (compound exhibited 0-25% inhibition of calcium ion influx induced by capsaicin stimulation)	–
O=C(Nc1cccc(C(F)(F)F)c1)c1ccc(/C=C/C(F)(F)F)cc1 [Compound 398]	++++ (compound exhibited 75% or greater inhibition of calcium ion influx induced by capsaicin stimulation)	–
CC(C)(C)C#Cc1ccc(C(=O)Nc2cccc(C(F)(F)F)c2)cn1 [Compound 424]	+++ (compound exhibited 50-75% inhibition of calcium ion influx induced by capsaicin stimulation)	–
CCC/C=C/c1ccc(C(=O)Nc2cc(CC)ccn2)cc1 [Compound 256]	+ (compound exhibited 0-25% inhibition of calcium ion influx induced by capsaicin stimulation)	–
COc1cccc(NC(=O)c2ccc(C#CC(C)(C)C)cc2)c1 [Compound 364]	++++ (compound exhibited 75% or greater inhibition of calcium ion influx induced by capsaicin stimulation)	–
CC(C)Oc1cccc(NC(=O)c2ccc(C#CC(C)(C)C)cc2)c1 [Compound 376]	+++ (compound exhibited 50-75% inhibition of calcium ion influx induced by capsaicin stimulation)	–
COc1ccc(NC(=O)c2ccc(/C=C/C(F)(F)F)cc2)cn1 [Compound 406]	++ (compound exhibited 25-50% inhibition of calcium ion influx induced by capsaicin stimulation)	–
COc1ccc(NC(=O)c2ccc(C#CC(C)(C)C)nc2)cn1 [Compound 435]	+ (compound exhibited 0-25% inhibition of calcium ion influx induced by capsaicin stimulation)	–
